Like-named read-outs stand apart in the source and are kept apart here.
Key:
[1] = target: T1, HCV NS5B (Hepatitis C virus genotype 1b, UniProt Q9WMX2); assay: HCV NS5B RdRp enzyme assay (preincubation protocol); assay type: biochemical
T1 construct: The protein was expressed with an 18 amino acid C-terminal truncation to enhance the solubility; made in house; host or cells: E. coli BL21 (DE3), pET21a
How it was run: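 C-terminally truncated (Δ18) genotype 1b NS5B from E. coli, 14 nM, added to compound, then polyA template (0.2 nM), 3H-UTP (0.29 μM) and oligo-dT12 primer precaptured on streptavidin SPA beads. 4 h at 30 °C, pH 7.5, 2% DMSO; SPA readout; IC50 from seven concentrations by logistic fit.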

[2] = test system: HCV replicon; assay: HCV replicon FRET assay; assay type: cell-based; conditions: Hepatitis C virus
How it was run: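 HCV replicon cells, with or without Renilla luciferase reporter, incubated with titrated compounds at 37 °C; Alamar blue read for cytotoxicity. NS3 protease activity read from lysates with 20 μM EDANS/DABCYL FRET peptide (340/490 nm, kinetic), or by Dual-Glo luciferase. Background from highest protease-inhibitor wells; EC50 = 50% signal reduction.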

[3] = Table 1, FRET assay, read-out: EC50*
[4] = Table 1b, FRET assay, read-out: EC50*

T1 sequence (Q9WMX2 2420-2992): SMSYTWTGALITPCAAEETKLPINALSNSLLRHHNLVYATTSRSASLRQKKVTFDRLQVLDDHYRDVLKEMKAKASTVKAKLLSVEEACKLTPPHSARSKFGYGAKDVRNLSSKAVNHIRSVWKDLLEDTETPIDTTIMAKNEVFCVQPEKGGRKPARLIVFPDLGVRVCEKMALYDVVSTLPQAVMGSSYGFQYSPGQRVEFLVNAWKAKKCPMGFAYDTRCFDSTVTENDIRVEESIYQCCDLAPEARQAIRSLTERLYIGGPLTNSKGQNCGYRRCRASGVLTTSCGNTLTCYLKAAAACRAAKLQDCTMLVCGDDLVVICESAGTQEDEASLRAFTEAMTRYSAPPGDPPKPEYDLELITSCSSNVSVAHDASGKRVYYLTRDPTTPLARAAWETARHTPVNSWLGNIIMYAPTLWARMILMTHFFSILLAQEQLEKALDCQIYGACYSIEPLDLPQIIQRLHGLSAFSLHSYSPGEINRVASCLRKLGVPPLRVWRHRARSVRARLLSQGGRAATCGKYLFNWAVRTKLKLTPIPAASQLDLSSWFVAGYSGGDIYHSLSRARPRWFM

| Structure (SMILES) | IC50 ([1]; Table 1, read-out: IC50*) [nM] | EC50 [2, 3] [nM] | also measured |
| --- | --- | --- | --- |
| O=C(O)c1ccc2c(C3CCCCC3)c3n(c2c1)CC(C(=O)Nn1cnnc1)Cc1ccccc1-3 (stereo not shown) | 10 to 1000 | > 10000 |  |
| COc1ccc(S(=O)(=O)NC(=O)c2ccc3c(C4CCCCC4)c4n(c3c2)CC(C(=O)N2CCOCC2)=Cc2ccccc2-4)cc1 | 10 to 1000 | 70 to 1000 |  |
| CC(=O)N1CCN(C(=O)C2=Cc3ccccc3-c3c(C4CCCCC4)c4ccc(C(=O)NS(=O)(=O)N(C)C)cc4n3C2)CC1 | 10 to 1000 | 70 to 1000 |  |
| O=C1CCCN(C(=O)C2=Cc3ccccc3-c3c(C4CCCCC4)c4ccc(C(=O)O)cc4n3C2)N1 | 10 to 1000 | 1000 to 10000 |  |
| CN(C)S(=O)(=O)NC(=O)c1ccc2c(C3CCCCC3)c3n(c2c1)CC(C(=O)N1CCS(=O)(=O)CC1)=Cc1ccccc1-3 | 10 to 1000 | 70 to 1000 |  |
| CN(C)S(=O)(=O)NC(=O)c1ccc2c(C3CCCCC3)c3n(c2c1)CC(C(=O)N1CCC(N2CCCC2=O)CC1)=Cc1ccccc1-3 | 10 to 1000 | 70 to 1000 |  |
| O=C(O)c1ccc2c(C3CCCCC3)c3n(c2c1)CC(C(=O)N1CCC2(CC1)OCCO2)=Cc1ccccc1-3 |  |  | IC50 ([1]; IC50*, Table 1): 10 to 1000 nM; EC50 [2]: 70 to 1000 nM |
| C[C@@H]1CN(C(=O)NC2Cc3ccccc3-c3c(C4CCCCC4)c4ccc(C(=O)O)cc4n3C2)C[C@H](C)O1 (stereo partly shown) [drawing 143] | 10 to 1000 | 70 to 1000 |  |
| COC(=O)c1ccc2c(C3CCCCC3)c3n(c2c1)CC(C(=O)N1C[C@@H](C)N[C@@H](C)C1)=Cc1c(OC)cccc1-3 |  |  | IC50 ([1]; Table 1b, read-out: IC50*): 20 to 1000 nM; EC50 [2, 4]: > 370 nM |
| CN(C)S(=O)(=O)NC(=O)c1ccc2c(C3CCCCC3)c3n(c2c1)CC(C(=O)N1CCN(c2ccccc2)CC1)=Cc1ccccc1-3 | 10 to 1000 | 70 to 1000 |  |
| CN(C)S(=O)(=O)NC(=O)c1ccc2c(C3CCCCC3)c3n(c2c1)CC(C(=O)N1CCC(N2CCOCC2)CC1)=Cc1ccccc1-3 | 10 to 1000 | 70 to 1000 |  |
| CN(C)S(=O)(=O)NC(=O)c1ccc2c(C3CCCCC3)c3n(c2c1)CC(C(=O)N1CCC(N2CCOCC2)CC1)=Cc1ccc(Cl)cc1-3 | > 1000 | 1000 to 10000 |  |
| COc1ccc2c(c1)C=C(C(=O)O)Cn1c-2c(C2CCCCC2)c2ccc(C(=O)NS(=O)(=O)N3CCN(C(C)=O)CC3)cc21 |  |  | IC50 ([1]; Table 1b, read-out: IC50*): 20 to 1000 nM; EC50 [2, 4]: > 10000 nM |
| COc1ccc2c(c1)C=C(C(=O)N(C)C1CCOCC1)Cn1c-2c(C2CCCCC2)c2ccc(C(=O)NS(=O)(=O)N(C)C)cc21 |  |  | IC50 ([1]; Table 1a, read-out: IC50*): 10 to 1000 nM; EC50 ([2]; Table 1a, FRET assay, read-out: EC50*): > 120 nM |
| O=C(O)c1ccc2c(C3CCCCC3)c3n(c2c1)CC(NC(=O)N1CCC(N2CCOCC2)CC1)Cc1ccccc1-3 (stereo not shown) | 10 to 1000 | 70 to 1000 |  |
| COc1ccc2c(c1)CC(C(=O)N1CCN(C(=O)C3(O)CC3)CC1)Cn1c-2c(C2CCCCC2)c2ccc(C(=O)NS(=O)(=O)N(C)C)cc21 (stereo not shown) |  |  | IC50 ([1]; Table 1b, read-out: IC50*): 20 to 1000 nM; EC50 [2, 4]: 30 to 1000 nM |
| COC(=O)c1ccc2c(C3CCCCC3)c3n(c2c1)CC(C(=O)N1CCC(N2CCOCC2)CC1)=Cc1ccccc1-3 | > 1000 | 1000 to 10000 |  |
| COCCN1CCN(C(=O)C2=Cc3ccccc3-c3c(C4CCCCC4)c4ccc(C(=O)NS(=O)(=O)N(C)C)cc4n3C2)CC1 | 10 to 1000 | 70 to 1000 |  |
| O=C(NS(=O)(=O)N1CCOCC1)c1ccc2c(C3CCCCC3)c3n(c2c1)CC(C(=O)N1CCOCC1)Cc1ccccc1-3 (stereo not shown) | 10 to 1000 | 70 to 1000 |  |
| COc1ccc2c(c1)CC(NC(=O)N(C)CC1CCCCO1)Cn1c-2c(C2CCCCC2)c2ccc(C(=O)NS(=O)(=O)N(C)C)cc21 (stereo not shown) |  |  | IC50 ([1]; Table 1b, read-out: IC50*): 20 to 1000 nM; EC50 [2, 4]: 30 to 1000 nM |
| COc1ccc2c(c1)C=C(C(=O)N1CC(CO)C1)Cn1c-2c(C2CCCCC2)c2ccc(C(=O)NS(=O)(=O)N(C)C)cc21 |  |  | IC50 ([1]; Table 1b, read-out: IC50*): 20 to 1000 nM; EC50 [2, 4]: 30 to 1000 nM |
| COC(=O)C1=Cc2ccccc2-c2c(C3CCCCC3)c3ccc(C(=O)NS(=O)(=O)N4CCOCC4)cc3n2C1 | 10 to 1000 | 70 to 1000 |  |
| COc1ccc2c(c1)C=C(C(=O)N1C[C@@H](C)O[C@@H](C)C1)Cn1c-2c(C2CCCCC2)c2ccc(C(=O)NS(=O)(=O)c3ccc(C)cn3)cc21 |  |  | IC50 ([1]; Table 1b, read-out: IC50*): 20 to 1000 nM; EC50 [2, 4]: 30 to 1000 nM |
| COc1ccc(S(=O)(=O)N2CCN(C(=O)C3=Cc4ccccc4-c4c(C5CCCCC5)c5ccc(C(=O)NS(=O)(=O)N(C)C)cc5n4C3)CC2)cc1 | 10 to 1000 | 70 to 1000 |  |
| CN(C)S(=O)(=O)NC(=O)c1ccc2c(C3CCCCC3)c3n(c2c1)CC(C(=O)N1CCCC(=O)N1)=Cc1ccccc1-3 [drawing 138] | 10 to 1000 | 70 to 1000 |  |
| COc1cccc2c1C=C(C(=O)N1CCOC(CO)C1)Cn1c-2c(C2CCCCC2)c2ccc(C(=O)O)cc21 (stereo not shown) |  |  | IC50 ([1]; Table 1b, read-out: IC50*): 20 to 1000 nM; EC50 [2, 4]: 30 to 1000 nM |

Source: patent US7473688B2, “Indolobenzazepine HCV NS5B inhibitors” (Bristol-Myers Squibb Company, priority 2005, dated 2009)
